The values that follow are results of earlier work, collected in patent publication US20090099154A1, “Pharmaceutical Sustained Release Compositions and Processes Thereof” (PANACEA BIOTEC LTD., priority 2005, published 2009).

One data set has as its system HSV-1-infected cells. Particulars: HSV-1-infected cells cultured in vitro.
For the next data set, the system named is HSV-2-infected cells. Particulars: HSV-2-infected cells cultured in vitro.
For the next data set, the system named is VZV-infected cells. As to conditions: VZV-infected cells cultured in vitro.

Take Penciclovir triphosphate: the figures for the intracellular half-life with HSV-1-infected cells, in the data set on HSV-2-infected cells and in the data set with VZV-infected cells were 10 h, 20 h and 7 h, respectively.
